Records with an inconclusive call do not appear. Active and inactive are the calls of the source.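 The calls were made as follows: active = Wild-type ribosome reporter drop at least double the humanized mutant ribosome reporter drop, growth loss under a set limit; inconclusive = no clear call, values can overlap the other calls; inactive = the rest.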
Legend:
[1] = system: E. coli wild-type GFP strain growth, fluorescence, 24 h; experiment: growth inhibition of wild-type GFP E. coli, dose response, H69 mutant RFP, cherry-pick (AID 977621);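 also: wild-type GFP and H69 mutant RFP strains grown together 50/50 in each well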
[2] = system: E. coli H69 humanized mutant ribosome RFP strain growth, fluorescence, 24 h; experiment: as above; conditions: test 2
[3] = E. coli mixed culture, 24 h, measured here: total growth OD600, test 2

`CSc1nc2nc3c(cc2c(=O)n1-c1ccccc1C)CCCC3` was tested, and the AC50 [1, 3] was over 100 µM and the AC50 [2] was over 100 µM.
For `CC(C)C[C@H]1COc2cc(Br)ccc2S(=O)(=O)N1`, the AC50 [1, 3] was over 100 µM and the AC50 [2] was 5.91 µM.
In the case of `O=C(c1ccc(Cl)cc1)C1CCCN(Cc2cccc3cnccc23)C1` (configuration not stated), the AC50 [1] is reported as > 100 µM (inactive) and the AC50 [2] is reported as over 100 µM.
In the case of `COc1ccc(-c2cn3cc(Cl)ccc3n2)cc1OC`, the AC50 [1] is reported as > 100 µM (inactive), the AC50 [1, 3] is reported as 27.2 µM and the AC50 [2] is reported as 31.4 µM.
`CCn1cc(Br)c(C(=O)Nc2ccc(C(=O)OC(C)C)cc2)n1` was tested, and the AC50 [1] was > 100 µM (inactive) and the AC50 [2] was 24.1 µM.
In the case of `O=C(Cc1c(Cl)cccc1Cl)Nc1cccc(S(=O)(=O)N2CCOCC2)c1`, the AC50 [1] is reported as > 100 µM (inactive), the AC50 [1, 3] is reported as 47.3 µM and the AC50 [2] is reported as over 100 µM.
In the case of `COC(=O)c1c(NC(=O)c2ccccc2C(=O)O)sc2c1CCC2`, the AC50 [1] is reported as > 100 µM (inactive) and the AC50 [2] is reported as 45.4 µM.
`CCSc1nc2ccccc2c(=O)n1CCc1ccc(OC)c(OC)c1` was tested, and the AC50 [1] was > 100 µM (inactive), the AC50 [1, 3] was 44.4 µM and the AC50 [2] was 47.2 µM.
For `Cc1ccc(NC(=O)CN(C)C(=O)Cc2coc3cc(C)c(C)cc23)cc1`, the AC50 [1] was > 100 µM (inactive), the AC50 [1, 3] was 42.4 µM and the AC50 [2] was 44 µM.
In the case of `C=CCn1c(SCC(=O)Nc2ccc3c(c2)OCCO3)nnc1-c1ccco1`, the AC50 [1] is reported as > 100 µM (inactive) and the AC50 [2] is reported as under 0.6 µM.
Compound `O=c1c2cc(Br)ccc2[nH]c(=S)n1Cc1ccccc1` has an AC50 [1, 3] of 43.2 µM and an AC50 [2] of over 100 µM.
In the case of `O=S(=O)(c1ccccc1)N1C[C@@H]2[C@H](c3ccccc31)[C@H](CO)N2Cc1ccccc1`, the AC50 [1] is reported as > 100 µM (inactive) and the AC50 [2] is reported as over 100 µM.
With `CN(C)S(=O)(=O)c1cccc(C(=O)Nc2ccc(C(=O)Nc3cccc(S(N)(=O)=O)c3)cc2)c1` the AC50 [1] was > 100 µM (inactive) and the AC50 [2] was over 100 µM.
`COc1ccccc1NC(=O)CSc1nccn1Cc1ccc(F)cc1` was tested, and the AC50 [1, 3] was over 100 µM and the AC50 [2] was 30.8 µM.
For `CCOc1ccc2oc(C(=O)NC3CCN(Cc4ccccc4)CC3)c(C)c2c1`, the AC50 [1, 3] was over 100 µM and the AC50 [2] was 1.3 µM.
In the case of `COC(=O)c1ccsc1NC(=O)c1cccc(OC)c1`, the AC50 [1, 3] is reported as over 100 µM and the AC50 [2] is reported as over 100 µM.
Compound `Cc1ccccc1-n1c([C@@H]2C[C@H]2c2ccccc2)n[nH]c1=S` has an AC50 [1, 3] of 1.6 µM and an AC50 [2] of 5.56 µM.
In the case of `CCOC(=O)c1ccoc1CN1CCN(S(=O)(=O)c2ccc(C)c(C)c2)CC1`, the AC50 [1] is reported as > 100 µM (inactive) and the AC50 [2] is reported as over 100 µM.
`O=C(O)CCSc1nc2ccccc2n1-c1ccccc1` was tested, and the AC50 [1] was > 100 µM (inactive), the AC50 [1, 3] was 26.9 µM and the AC50 [2] was 7.77 µM.
`CCOc1ccc(CCNC(=O)CN2C(=O)CCSc3ccccc32)cc1` was tested, and the AC50 [1] was > 100 µM (inactive) and the AC50 [2] was over 100 µM.
With `Cc1ccc(N(CC(O)Cn2nc(C)cc2C)S(=O)(=O)c2ccc3ccccc3c2)cc1` (configuration not stated) the AC50 [1] was > 100 µM (inactive), the AC50 [1, 3] was 31.5 µM and the AC50 [2] was over 100 µM.
`O=C(CSCc1c(Cl)cccc1Cl)Nc1cccnc1` was tested, and the AC50 [1] was > 100 µM (inactive), the AC50 [1, 3] was over 100 µM and the AC50 [2] was 5.01 µM.
For `CCC1=Nc2cc(C(=O)NCc3cccnc3)ccc2Sc2ccc(C)cc21`, the AC50 [1] was > 100 µM (inactive) and the AC50 [2] was over 100 µM.
For `O=C(CSc1nc2scc(-c3ccccc3)c2c(=O)[nH]1)N1CCCCC1`, the AC50 [1] was > 100 µM (inactive), the AC50 [1, 3] was 44.2 µM and the AC50 [2] was over 100 µM.
With `O=C(O)CCC(=O)NCc1c(Cl)cccc1Sc1ccc(Cl)cc1` the AC50 [1] was > 100 µM (inactive) and the AC50 [2] was over 100 µM.
Compound `C=C1c2cc3c(cc2NC(=S)N1Cc1ccccc1)OCO3` has an AC50 [1, 3] of under 0.6 µM and an AC50 [2] of over 100 µM.
For `C=C(C)Cn1c(=O)c2c(nc3n2CCCN3Cc2ccccc2)n(C)c1=O`, the AC50 [1] was > 100 µM (inactive) and the AC50 [2] was over 100 µM.
`CSc1c(-c2ccccn2)c(N)nn1C(=O)C1CC1` was tested, and the AC50 [1] was > 100 µM (inactive) and the AC50 [2] was over 100 µM.
With `COc1ccccc1-n1c(Cc2ccccc2)nc2ccccc2c1=O` the AC50 [1] was > 100 µM (inactive), the AC50 ([1]; measured here: total growth OD600, test 2) was 33 µM and the AC50 [2] was 47.8 µM.
`CCc1ccn2cc(-c3ccc4c(c3)OCO4)nc2c1` gave an AC50 [1, 3] of over 100 µM and an AC50 [2] of over 100 µM.
In the case of `O=S(=O)(NCC1CCCO1)c1ccc(-c2ccc(Cl)cc2)cc1` (configuration not stated), the AC50 [1] is reported as > 100 µM (inactive), the AC50 [1, 3] is reported as 44.5 µM and the AC50 [2] is reported as over 100 µM.
